The source of these data is patent EP2698385A1, “Detection of synthetic cannabinoids” (priority 2012, dated 2014).

Read-outs that look alike come from different tables or passages of the source.

Assay type in all cases: binding, sheep
One test concerns Antibody to Immunogen I. As to conditions: Cross-reactants at 100 ng/ml, Antibody to Immunogen I. As to the method: (§1) An aqueous solution of each immunogen was formulated with Freund's Complete Adjuvant (FCA) to form an emulsion consisting of 2mg/ml* immunogen in 50% (v/v) FCA. Three sheep were immunised with this emulsion (1° immunisation), 0.25ml being intramuscularly injected at each of four sites in the flank of each animal. Subsequent immunizations (boosts) contained 1mg/ml* immunogen. All boosts were emulsified in 50% (v/v) Freund's Incomplete Adjuvant (FIA) and were administered in the same manner as the 1° immunisation, at monthly intervals. Blood sampling took place 7 to 14 days after each boost. *The general procedure for immunogen administration is outlined above, however, it was necessary to deviate from this protocol in some cases, due to reduced immunogen concentrations (Immunogens II, IV, VII and VIII) and/or amount available (Immunogen VIII). Any deviations from the protocol described are outlined in Table 1A below and highlighted in bold. Table 1A: Amount and volume of immunogens administered for primary and subsequent boosts
(§2) The wells of an enhanced binding 96 well polystyrene microtiter plate were coated with IgG fraction of antiserum raised to Immunogen I or II, diluted in 10mM Tris, pH8.5 (125µl/well). The appropriate antibody coating dilution was determined using standard ELISA checkerboard techniques. The plate was incubated overnight at 4°C, washed 4 times over 10 minutes with Tris buffered saline containing Tween 20 (TBST) and tapped dry. Standard solutions (JWH-018 for Immunogens I and II) were applied at 0, 0.625, 1.25, 2.5, 5, 10, 20 and 40ng/ml and 50µl of each was added to the appropriate wells. 75µl of conjugate (appropriate hapten-HRP) diluted in Tris buffer (pH 7.2) containing EDTA, D-mannitol, sucrose, thimerosal and BSA, was added to each of the wells. The appropriate dilution of conjugate was also determined using standard ELISA checkerboard techniques. The plate was incubated at 25°C for 1 hour. Excess unbound conjugate was removed by washing 6 times over a 10 minute period with TBST. 125µl of tetramethylbenzidine (TMB) substrate solution was added to each well of the plate that was then incubated for 20 minutes in the dark at room temperature. The reaction was terminated by addition of 125µl 0.2M H2SO4 to each well. The absorbance was then measured at 450nm using a microtiter plate reader. The data are inputted to a computer program called 'KC Junior'. It is a 4 parameter fit curve and allow the calculatation of concentrations between the standard runs. This program is used to calculate the IC50s by dividing the 0ng/ml OD value by 2 and obtaining the concentration value from the curve for this OD.
In a similar manner to that described above, the wells of a 96-well microtiter plate were coated with the IgG fraction of the antiserum raised to Immunogens I or II. Standard solutions (JWH-018 for Immunogen I and II) were applied at 0, 0.625, 1.25, 2.5, 5, 10, 20 and 40ng/ml and conjugate was employed as detection reagent.
(§3) The data set our in Tables 3 and 4 are generated using antibodies raised against the indicated Immunogens in a competitive binding assay with the indicated tracers, using the indicated standards: Table 2
(§4) A450 = absorbance at 450nm B = absorbance at 450nm at xng/ml standard concentration B0 = absorbance at 450nm at 0ng/ml standard concentration IC50 = standard concentration which produces 50% B/B0
(§5) In order to determine the specificity of the competitive ELISAs, standard solutions of a range of structurally similar synthetic cannabinoids and their metabolites were prepared in TBST. Using the calibration curves generated and employing a single level of cross reactants, these were used to determine the cross-reactivity of each immunoassay with these substances. […]

The subject of another test is Antibody to Immunogen IV. As to conditions: Cross-reactants at 100 ng/ml, Antibody to Immunogen IV. The method, then: as §1, §2
(§6) In a similar manner to that described above, the wells of a 96-well microtiter plate were coated with the IgG fraction of the antiserum raised to Immunogens IV, VII or VIII. Standard solutions (JWH-018 for Immunogens IV and VIII, JWH-015 for Immunogen VII) were prepared in TBST at 0, 1.25, 2.5, 5, 10, 20, 40 and 80ng/ml and conjugate was employed as detection reagent.
as §3, §4, §5

In test [1] the test system is Antibody to Immunogen VIII. As to conditions: Cross-reactants at 100 ng/ml, Antibody to Immunogen VIII. The method, then: as §1, §2, §6, §3, §4, §5
Test [2] concerns Antibody to Immunogen VII. As to conditions: Cross-reactants at 100 ng/ml, Antibody to Immunogen VII. The method, then: as §1, §2, §6, §3, §4, §5
The mark [3] stands for this setting: listed as YWH-081 7-methoxynaphthyl isomer (JWH-164).

Regarding `CCCCCn1c(C)c(C(=O)c2ccc(OC)c3ccccc23)c2ccccc21` [JWH-098], the “%B/B0” value in the test on Antibody to Immunogen I is on record as 77.58%; in the test with Antibody to Immunogen IV, 44.03%; in test [1] it was 59.80%; in test [2], 82.85%.

For the compound `CN1CCCCC1Cn1cc(C(=O)c2cc([N+](=O)[O-])ccc2I)c2ccccc21` (stereo not drawn) [AM-1241], the “%B/B0” value in the test with Antibody to Immunogen I is listed as 85.61%; in the test with Antibody to Immunogen IV it was 91.38%; in test [1] it was 102.46%; in test [2], 94.96%.

Take `CCCCCn1cc(C(=O)c2cccc3ccc(OC)cc23)c2ccccc21` [JWH-164 (JWH-081 7-methoxynaphthyl isomer), JWH-081 7-methoxynaphthyl isomer]: the “%B/B0” value with Antibody to Immunogen I is 91.86%; with Antibody to Immunogen I (setting [3]) it was 88.26%; in the test on Antibody to Immunogen IV, 36.14%; with Antibody to Immunogen IV (setting [3]), 39.20%; in test [1], 57.93%; in test [1] (setting [3]), 59.51%. In addition, the “%B/B0” value in test [2] amounted to 96.13%; in test [2] (setting [3]), 97.60%.

`CCCCCn1ccc(C(=O)c2cccc3ccccc23)c1` [JWH-030]: the “%B/B0” value in the test with Antibody to Immunogen I is 61.17%; in the test on Antibody to Immunogen IV, 93.17%; in test [1] it was 94.25%; in test [2], 89.66%.

For the compound `CCCCCn1cc(C(=O)Cc2ccc(Cl)cc2)c2ccccc21` [JWH-206 (JWH-203 4-chloro isomer), JWH-203 4-chloro isomer], the “%B/B0” value stood at 75.96% in the test on Antibody to Immunogen I, 65.63% in the test with Antibody to Immunogen IV, 10.55% in test [1] and 97.17% in test [2].

As to `CCCCCn1cc(C(=O)c2ccc3ccccc3c2)c2ccccc21` [JWH 018 2'-naphthyl isomer], the “%B/B0” value with Antibody to Immunogen I is reported as 75.90%; in the test with Antibody to Immunogen IV it was 28.13%; in test [1] it was 14.94%; in test [2] it was 94.98%.

In the case of `O=C(c1ccc2ccccc2c1)c1cn(CCN2CCOCC2)c2ccccc12` [JWH-200 2'-naphthyl isomer], the “%B/B0” value in the test on Antibody to Immunogen I amounted to 28.57%; in the test on Antibody to Immunogen IV, 92.29%; in test [1], 96.12%; in test [2], 94.65%.

As for `COc1ccc(C(=O)c2cn(CCCC(C)O)c3ccccc23)cc1` (stereo not drawn) [RCS-4 N-(4-hydroxypentyl) metabolite], the “%B/B0” value with Antibody to Immunogen I is on record as 65.71%; in the test on Antibody to Immunogen IV, 59.16%; in test [1], 8.89%; in test [2] it was 95.72%.

For the compound `CCCCn1c(O)c(C(=O)c2cccc3ccccc23)c2ccccc21` [JWH-073 2-hydroxyindole metabolite], the “%B/B0” value was determined as 89.62% in the test on Antibody to Immunogen I, 89.63% with Antibody to Immunogen IV, 93.42% in test [1] and 92.65% in test [2].

Turning to `COc1ccc(C(=O)c2c(C)n(CCN3CCOCC3)c3cc(I)ccc23)cc1` [AM-630 (other name 6-Iodopravadoline), 6-Iodopravadoline], the “%B/B0” value in the test with Antibody to Immunogen I amounted to 91.12%; in the test with Antibody to Immunogen IV, 90.17%; in test [1], 89.88%; in test [2], 99.88%.

On to `CCCCn1cc(C(=O)c2ccc(C)c3ccccc23)c2ccccc21` [JWH-073 4-methylnaphthyl analogue], for which the “%B/B0” value in the test on Antibody to Immunogen I worked out at 45.54%; in the test with Antibody to Immunogen IV, 7.01%; in test [1] it was 19.75%; in test [2] it was 78.36%.

Consider `CCCCCn1cc(C(=O)C23CC4CC(CC(C4)C2)C3)c2ccccc21` [JWH 018 adamantyl analog], for which the “%B/B0” value with Antibody to Immunogen I came out at 95.94%; in the test on Antibody to Immunogen IV it was 99.02%; in test [1], 10.97%; in test [2] it was 94.48%.

In the case of `CCCCCn1cc(C(=O)c2ccc(CC)c3ccccc23)c2ccccc21` [JWH-210], the “%B/B0” value in the test with Antibody to Immunogen I was determined as 91.18%; in the test with Antibody to Immunogen IV, 5.53%; in test [1], 16.87%; in test [2], 96.62%.

As for `CCCCCn1cc(C(=O)c2c(CC)ccc3ccccc23)c2ccccc21` [JWH-210 2-ethylnaphthyl isomer], the “%B/B0” value in the test on Antibody to Immunogen I is 81.37%; in the test with Antibody to Immunogen IV it was 53.97%; in test [1], 73.51%; in test [2], 96.13%.

Turning to `CCc1ccc(C(=O)c2cn(CCCCCC(=O)O)c3ccccc23)c2ccccc12` [JWH-210 N-(5-carboxypentyl) metabolite], the “%B/B0” value is 76.77% in the test with Antibody to Immunogen I, 85.29% with Antibody to Immunogen IV, 96.27% in test [1] and 96.07% in test [2].

Turning to `CCCCCCC(C)(C)c1cc(OC)c([C@@H]2C=C(CO)[C@@H]3C[C@H]2C3(C)C)c(OC)c1` [HU-308], the “%B/B0” value with Antibody to Immunogen I was 101.35%; with Antibody to Immunogen IV, 94.03%; in test [1], 89.77%; in test [2] it was 95.95%.

With `CCCCCn1cc(C(=O)Cc2cccc(OC)c2)c2ccccc21` [JWH-302], the “%B/B0” value turned out to be 84.66% in the test on Antibody to Immunogen I, 45.67% with Antibody to Immunogen IV, 7.97% in test [1] and 104.92% in test [2].

In the case of `CCCCCn1c(O)c(C(=O)c2cccc3ccccc23)c2ccccc21` [JWH-018 2-hydroxyindole metabolite], the “%B/B0” value in the test with Antibody to Immunogen I is on record as 95.37%; in the test with Antibody to Immunogen IV it was 100.14%; in test [1] it was 101.36%; in test [2], 95.08%.

Consider `COc1ccc(C(=O)c2cn(CCCCCC(=O)O)c3ccccc23)cc1` [RCS-4 N-(5-carboxypentyl) metabolite], for which the “%B/B0” value in the test on Antibody to Immunogen I amounted to 77.12%; with Antibody to Immunogen IV, 91.44%; in test [1], 91.97%; in test [2], 94.00%.

On to “JWH-081 2-methoxynaphthyl isomer [JWH-081 2-methoxynaphthyl isomer or (JWH-267)]”, for which the “%B/B0” value in the test with Antibody to Immunogen I turned out to be 69.58%; in the test with Antibody to Immunogen IV, 27.67%; in test [1], 58.20%; in test [2], 83.43%.

With `O=C(c1ccc(I)cc1)c1cn(CCCCCF)c2ccccc12` [AM-694 4-iodo isomer], the “%B/B0” value with Antibody to Immunogen I was 73.79%; in the test with Antibody to Immunogen IV, 27.66%; in test [1] it was 13.42%; in test [2], 98.71%.

In the case of `CCCCCn1cc(C(=O)Cc2cccc(C)c2)c2ccccc21` [JWH 251 3-methylphenyl isomer], the “%B/B0” value with Antibody to Immunogen I is reported as 85.90%; in the test on Antibody to Immunogen IV, 51.15%; in test [1] it was 8.97%; in test [2], 99.32%.

As to `COc1ccccc1CC(=O)c1cn(CCCCCC(=O)O)c2ccccc12` [JWH 250 N-(5-carboxypentyl) metabolite], the “%B/B0” value with Antibody to Immunogen I is 86.21%; in the test on Antibody to Immunogen IV, 89.88%; in test [1] it was 89.30%; in test [2], 97.60%.
